Columns and labels:
[1] = tested on: NZB/W F1 mouse; assay: Survival rate of a lupus animal model; type: in vivo; details: 30 mg/kg intraperitoneally once a day, 25-week aged male mice
Description: An NZB/W F1 mouse is a lupus animal model showing a voluntary lupus symptom. On the animal model, the effect of 2,4-pyrimidine derivatives was tested.
Each group included 10, 25-week aged male NZB/W F1 mice. Each group was intraperiotneally administered with a control (5% DMSO solution) or a testing agent (2,4-pyrimidine derivative in a dose of 30 mg/kg) once a day. Except for mice which died by worsening of lupus symptoms, the ratio of surviving mice was analyzed.

[2] = target: T1, interaction of gp96 with KDELR1 (Mus musculus, UniProt P08113); assay: Co-immunoprecipitation of gp96 with KDELR1 in RAW24.7 cells; type: cell-based; details: 10 μM, 24 h
T1 construct: endogenous in cells; host or cells: RAW24.7 (RAW264.7) cells
Description: (§1) FIGS. 1 to 9 represent suppression of cell surface gp96 by GPM1 reduces DC maturation and B220^+ population in gp96tm transgenic mice. (FIG. 1) Chemical structure of GPM1 (Formula 2) and negative control (NC1, Formula 16) used in this study. (FIG. 2) The dose-dependent effect of GPM1 or NC1 on the AIMP1-gp96 interaction using ELISA method as described. The indicated concentrations of the two compounds and biotin-conjugated murine gp96 were added to AIMP1 coated on the surface of microtiter wells, and gp96 bound to AIMP1 was detected with strepavidin-conjugated peroxidase. (FIG. 3) The binding of GPM1 to gp96 was examined by surface plasmon resonance (SPR). GPM1 at the indicated concentrations was injected to immobilized gp96 and the binding was measured using Biacore 3000. The response data were processed using data from a reference surface and buffer injections. Each concentration was tested in triplicate. (FIG. 4) RAW24.7 cells were treated with 10 μM GPM1 for 24 h. Cell lysates were immunoprecipitated with control IgG or anti-gp96 antibody and the immunoprecipitated proteins were immunoblotted with anti-KDELR1, antiAIMP1 and gp96 antibodies. WCL means whole cell lysate. […] TNFα secreted from BMDCs was quantified by ELISA. […]

[3] = target: gp96 (Homo sapiens, UniProt P14625); assay: Surface plasmon resonance, GPM1 binding to gp96 WT; design: made in house; host or cells: Escherichia coli BL21 (DE3)
Description: Human gp96 was expressed as His tag fusion protein in Escherichia coli BL21 (DE3) and purified by nickel affinity chromatography. His-tagged human gp96 was immobilized onto CM5 sensor chips using standard amine coupling2. PBS was used as a running buffer. The carboxymethyl dextran surface within one side of the flow cell was activated with a 7-min injection of a 1:1 ratio of 0.4M EDC and 0.1M NHS. The protein was coupled to the surface with a 7-min injection of gp96 diluted in 10 mM sodium acetate, pH 3.7. Remaining activated groups were blocked with a 7-min injection of 1.0M ethanolamine, pH 8.5. GPM1 compound was dissolved directly in the PBS running buffer containing 1% DMSO and injected at a flow rate of 20 μl/min at 25° C. and the binding was determined by the change in resonance units (RU). The compound concentration varied from 10 nM to 25 μM and each concentration was tested at least three times. All of the bound complexes dissociated back to baseline within a reasonable time frame. Therefore, no regeneration was required. Sensorgram was processed by subtracting the binding response recorded from the control surface, followed by subtracting an average of the buffer blank injections from the reaction spot. To determine kinetic rate constants, all data sets were fit to a simple 1:1 binding with drifting baseline model using BIAevaluation program.

[4] = target: T2, interaction of gp96 with AIMP1 (Mus musculus, UniProt P08113); assay: Co-immunoprecipitation of gp96 with AIMP1 in RAW24.7 cells; type: cell-based; details: 10 μM, 24 h
T2 construct: endogenous in cells; host or cells: RAW24.7 (RAW264.7) cells
Description: as §1

gp96, sequence (P14625 22-803): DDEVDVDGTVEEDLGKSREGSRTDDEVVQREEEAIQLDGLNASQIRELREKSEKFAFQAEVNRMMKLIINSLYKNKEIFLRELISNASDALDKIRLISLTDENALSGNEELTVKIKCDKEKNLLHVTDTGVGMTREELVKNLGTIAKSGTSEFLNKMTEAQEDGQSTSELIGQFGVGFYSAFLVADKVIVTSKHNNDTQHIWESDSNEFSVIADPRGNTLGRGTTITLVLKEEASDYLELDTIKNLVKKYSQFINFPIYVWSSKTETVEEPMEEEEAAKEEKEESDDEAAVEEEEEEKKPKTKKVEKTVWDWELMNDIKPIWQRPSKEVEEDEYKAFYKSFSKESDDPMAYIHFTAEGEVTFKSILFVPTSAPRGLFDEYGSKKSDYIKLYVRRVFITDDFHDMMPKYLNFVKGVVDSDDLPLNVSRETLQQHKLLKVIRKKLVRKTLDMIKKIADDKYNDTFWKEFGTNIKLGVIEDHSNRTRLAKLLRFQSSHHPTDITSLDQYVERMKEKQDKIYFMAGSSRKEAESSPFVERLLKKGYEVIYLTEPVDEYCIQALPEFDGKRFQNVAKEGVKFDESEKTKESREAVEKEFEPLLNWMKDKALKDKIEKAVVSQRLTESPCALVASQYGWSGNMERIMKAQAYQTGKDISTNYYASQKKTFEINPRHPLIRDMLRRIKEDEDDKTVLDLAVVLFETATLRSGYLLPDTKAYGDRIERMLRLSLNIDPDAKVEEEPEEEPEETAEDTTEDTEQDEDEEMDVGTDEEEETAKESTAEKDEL
T1 sequence (P08113 22-802): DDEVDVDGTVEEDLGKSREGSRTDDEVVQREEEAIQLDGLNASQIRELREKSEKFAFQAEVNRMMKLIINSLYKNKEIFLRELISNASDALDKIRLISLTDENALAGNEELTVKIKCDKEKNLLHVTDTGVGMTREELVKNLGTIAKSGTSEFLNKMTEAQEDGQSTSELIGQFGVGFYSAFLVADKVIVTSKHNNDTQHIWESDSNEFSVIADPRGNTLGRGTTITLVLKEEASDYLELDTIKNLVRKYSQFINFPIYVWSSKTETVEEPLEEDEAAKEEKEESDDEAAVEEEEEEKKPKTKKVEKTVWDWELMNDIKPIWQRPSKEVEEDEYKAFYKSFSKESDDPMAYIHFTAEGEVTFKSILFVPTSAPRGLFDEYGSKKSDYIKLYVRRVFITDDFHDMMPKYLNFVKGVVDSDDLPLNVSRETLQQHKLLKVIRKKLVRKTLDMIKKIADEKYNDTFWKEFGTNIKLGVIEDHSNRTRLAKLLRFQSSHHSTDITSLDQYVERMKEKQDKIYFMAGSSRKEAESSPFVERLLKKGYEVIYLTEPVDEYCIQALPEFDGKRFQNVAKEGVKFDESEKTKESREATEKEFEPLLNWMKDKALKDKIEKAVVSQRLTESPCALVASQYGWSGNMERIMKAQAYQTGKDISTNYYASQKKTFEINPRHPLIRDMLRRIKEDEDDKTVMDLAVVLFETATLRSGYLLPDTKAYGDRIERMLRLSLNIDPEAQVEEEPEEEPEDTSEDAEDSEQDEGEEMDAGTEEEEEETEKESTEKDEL
T2 sequence (P08113 22-802): as above

Compound: COC(=O)[C@@H](Oc1nc(OC)cc(OC)n1)C(C)C [GPM1, (S)-methyl 2-(4,6-dimethoxypyrimidin-2-yloxy)-3-methylbutanoate]
- ratio of mice which died by lupus [1]: significantly reduced
- interaction of gp96 with KDELR1 ([2]; RAW24.7 cells, co-immunoprecipitation): increased
- cellular levels of gp96, KDER1 and AIMP1 ([2]; whole cell lysate): did not affect
- Kd [3]: 87.9 nM
- koff (dissociation rate constant) [3]: 0.0154 s⁻¹
- kon ([3]; read-out: Ka): 175000 M⁻¹ s⁻¹
- interaction of gp96 with AIMP1 [4]: decreased

Source: US9573907B2, “2, 4-pyrimidine derivatives and use thereof” (SNU R&DB FOUNDATION, priority 2009, dated 2017)
